Converted amounts (≈) assume the structure as drawn. Where a name gives a salt, the structure may show the parent alone.
How the values were obtained:
[1] = test system: Bacillus subtilis (ATCC43639); experiment: Microtitre plate assay, IC90 determination; assay type: cell-based; settings: 90% inhibitory concentration for bacterial growth, 37° C., resazurin fluorescence, read-out: IC90 (μg/ml) BSU 43639
Experimental: (§1) The bacteria used in this study were grown overnight in flasks containing 100 ml Mueller-Hinton Broth (Becton Dickinson—cat. no. 275730) in sterile de-ionized water, with shaking, at 37° C. Stocks (0.5 ml/tube) were stored at −70° C. until use. Bacteria titrations were performed in microtiter plates and colony forming units (CFUs) were determined. In general, an inoculum level of approximately 100 CFUs was used for susceptibility testing.
(§2) Anti Bacterial Susceptibility Testing: IC90 Determination
(§3) Flat-bottom, sterile 96-well plastic microtiter plates were filled with 180 μl of sterile deionized water, supplemented with 0.25% BSA. Subsequently, stock solutions (7.8×final test concentration) of compounds were added in 45 μl volumes in column 2 Serial five-fold dilutions (45 μl in 180 μl) were made directly in the microtiter plates from column 2 to reach column 11. Untreated control samples with (column 1) and without (column 12) inoculum were included in each microtiter plate. Depending on the bacteria type, approximately 10 to 60 CFU per well of bacteria inoculum (100 TCID50), in a volume of 100 μl in 2.8× Mueller-Hinton broth medium, was added to the rows A to H, except column 12. The same volume of broth medium without inoculum was added to column 12 in row A to H. The cultures were incubated at 37° C. for 24 hours under a normal atmosphere (incubator with open air valve and continuous ventilation). At the end of incubation, one day after inoculation, the bacterial growth was quantitated fluorometrically. Therefore resazurin (0.6 mg/ml) was added in a volume of 20 μl to all wells […], and the plates were re-incubated overnight. A change in colour from blue to pink indicated the growth of bacteria.
(§4) The fluorescence was read in a computer-controlled fluorometer (Cytofluor Biosearch) at an excitation wavelength of 530 nm and an emission wavelength of 590 nm. The % growth inhibition achieved by the compounds was calculated according to standard methods. The IC90 (expressed in μg/ml) was defined as the 90% inhibitory concentration for bacterial growth.

[2] = test system: Enterococcus faecalis (ATCC29212); experiment: Microtitre plate assay, IC90 determination; assay type: cell-based; settings: 90% inhibitory concentration for bacterial growth, 37° C., resazurin fluorescence, read-out: IC90 (μg/ml) EFA 29212
Experimental: as §1, §2, §3, §4

[3] = test system: Listeria monocytogenes (ATCC49594); experiment: Microtitre plate assay, IC90 determination; assay type: cell-based; settings: 90% inhibitory concentration for bacterial growth, 37° C., resazurin fluorescence, read-out: IC90 (μg/ml) LMO 49594
Experimental: as §1, §2, §3, §4

[4] = test system: Pseudomonas aeruginosa (ATCC27853); experiment: Microtitre plate assay, IC90 determination; assay type: cell-based; settings: 90% inhibitory concentration for bacterial growth, 37° C., resazurin fluorescence, read-out: IC90 (μg/ml) PAE 27853
Experimental: as §1, §2, §3, §4

[5] = test system: Staphylococcus aureus (ATCC25923); experiment: Microtitre plate assay, IC90 determination; assay type: cell-based; settings: 90% inhibitory concentration for bacterial growth, 37° C., resazurin fluorescence, read-out: IC90 (μg/ml) STA 25923
Experimental: as §1, §2, §3, §4

[6] = test system: Staphylococcus aureus (ATCC29213); experiment: Microtitre plate assay, IC90 determination; assay type: cell-based; settings: 90% inhibitory concentration for bacterial growth, 37° C., resazurin fluorescence, read-out: IC90 (μg/ml) STA 29213
Experimental: as §1, §2, §3, §4

[7] = test system: Streptococcus pneumoniae (ATCC6305); experiment: Microtitre plate assay, IC90 determination; assay type: cell-based; settings: 90% inhibitory concentration for bacterial growth, 37° C., resazurin fluorescence, read-out: IC90 (μg/ml) SPN 6305
Experimental: as §1, §2, §3, §4

[8] = test system: Streptococcus pyogens (ATCC8668); experiment: Microtitre plate assay, IC90 determination; assay type: cell-based; settings: 90% inhibitory concentration for bacterial growth, 37° C., resazurin fluorescence, read-out: IC90 (μg/ml) SPY 8668
Experimental: as §1, §2, §3, §4

[9] = test system: methicilline resistant Staphylococcus aureus (MRSA) (a clinical isolate from the University of Antwerp); experiment: Microtitre plate assay, IC90 determination; assay type: cell-based; settings: 90% inhibitory concentration for bacterial growth, 37° C., resazurin fluorescence, read-out: IC90 (μg/ml) STA RMETHIC
Experimental: as §1, §2, §3, §4

[10] = test system: Staphylococcus aureus (ATCC43300); experiment: Microtitre plate assay, IC90 determination; assay type: cell-based; settings: 90% inhibitory concentration for bacterial growth, 37° C., resazurin fluorescence, read-out: IC90 (μg/ml) STA 43300
Experimental: as §1, §2, §3, §4

[11] = test system: Streptococcus mutans (ATCC33402); experiment: Microtitre plate assay, IC90 determination; assay type: cell-based; settings: 90% inhibitory concentration for bacterial growth, 37° C., resazurin fluorescence, read-out: IC90 (μg/ml) SMU 33402
Experimental: as §1, §2, §3, §4

[12] = test system: Enterococcus faecalis (ATCC14506); experiment: Microtitre plate assay, IC90 determination; assay type: cell-based; settings: 90% inhibitory concentration for bacterial growth, 37° C., resazurin fluorescence, read-out: IC90 (μg/ml) EFA 14506
Experimental: as §1, §2, §3, §4

| IC90 [1] [µg/mL] | IC90 [2] [µg/mL] | IC90 [3] [µg/mL] | IC90 [4] [µg/mL] | IC90 [5] [µg/mL] | IC90 [6] [µg/mL] | IC90 [7] [µg/mL] | IC90 [8] [µg/mL] | melting point [°C] | IC90 [10] [µg/mL] | IC90 [11] [µg/mL] | IC90 [12] [µg/mL] | Structure (SMILES) | IC90 [9] [µg/mL] |
| --- | --- | --- | --- | --- | --- | --- | --- | --- | --- | --- | --- | --- | --- |
| 12.8 (≈ 25.2 µM) | 12.8 (≈ 25.2 µM) | 12.8 (≈ 25.2 µM) | 12.8 (≈ 25.2 µM) | 12.8 (≈ 25.2 µM) | 12.8 (≈ 25.2 µM) | 12.8 (≈ 25.2 µM) | 12.8 (≈ 25.2 µM) | 173 | – | – | – | CN(C)CCC(O)(Cc1c(-c2ccccc2)c(-c2ccccc2)nc2ccccc12)c1cc(F)cc(F)c1 (stereo not drawn) [Compound 21] | 12.8 (≈ 25.2 µM) |
| 11.6 (≈ 25.1 µM) | 11.6 (≈ 25.1 µM) | 11.6 (≈ 25.1 µM) | 9.2 (≈ 19.9 µM) | 11.6 (≈ 25.1 µM) | 11.6 (≈ 25.1 µM) | 5.2 (≈ 11.2 µM) | 9.2 (≈ 19.9 µM) | – | 9.2 (≈ 19.9 µM) | 9.2 (≈ 19.9 µM) | – | COc1nc2cccc(C(O)(CCN(C)C)c3ccc4ccccc4c3)c2cc1-c1ccccc1 (stereo not drawn) [Compound 3] | 11.6 (≈ 25.1 µM) |
| 11.5 (≈ 25.1 µM) | 11.5 (≈ 25.1 µM) | 9.2 (≈ 20.1 µM) | 11.5 (≈ 25.1 µM) | 11.5 (≈ 25.1 µM) | 11.5 (≈ 25.1 µM) | 11.5 (≈ 25.1 µM) | 9.2 (≈ 20.1 µM) | 123 | – | 9.2 (≈ 20.1 µM) | – | COc1nc2ccccc2c(CC(O)(CCN(C)C)c2cccc(F)c2)c1Cc1ccccc1 (stereo not drawn) [Compound 71] | 11.5 (≈ 25.1 µM) |
| – | – | – | – | – | – | – | – | 156 | – | – | – | COc1nc2c(C(O)(CCN(C)C)c3cc(F)cc(F)c3)cc(-c3cccnc3)cc2cc1-c1ccccc1 (stereo not drawn) (as salt: salt) [Compound 64] | – |
| 52.8 (≈ 100 µM) | 13.3 (≈ 25.2 µM) | 41.9 (≈ 79.4 µM) | 13.3 (≈ 25.2 µM) | 52.8 (≈ 100 µM) | 13.3 (≈ 25.2 µM) | 13.3 (≈ 25.2 µM) | 13.3 (≈ 25.2 µM) | 190 | – | – | – | CN(C)CCC(O)(c1cccc2ccccc12)c1cc(Br)cc2cc(-c3ccccc3)c(=O)[nH]c12 (stereo not drawn) [Compound 69] | 52.8 (≈ 100 µM) |
| – | – | – | – | – | – | – | – | 151 | – | – | – | CN(C)CCC(O)(c1cc(F)cc(F)c1)c1ccc2nc(-c3cccnc3)cc(-c3ccccc3)c2c1 (stereo not drawn) (as salt: salt) [Compound 42] | – |
| – | 10.2 (≈ 19.9 µM) | 10.2 (≈ 19.9 µM) | 12.9 (≈ 25.2 µM) | 11.5 (≈ 22.5 µM) | 12.9 (≈ 25.2 µM) | 11.5 (≈ 22.5 µM) | 10.2 (≈ 19.9 µM) | – | 12.9 (≈ 25.2 µM) | 10.2 (≈ 19.9 µM) | – | COc1nc2c(C(O)(CCN(C)C)c3cccs3)cc(Br)cc2cc1Cc1ccccc1 (stereo not drawn) [Compound 10] | 10.2 (≈ 19.9 µM) |
| – | 10.5 (≈ 19.9 µM) | 10.5 (≈ 19.9 µM) | 10.5 (≈ 19.9 µM) | 11.8 (≈ 22.4 µM) | 10.5 (≈ 19.9 µM) | 13.3 (≈ 25.2 µM) | 10.5 (≈ 19.9 µM) | – | 13.3 (≈ 25.2 µM) | 10.5 (≈ 19.9 µM) | 11.8 (≈ 22.4 µM) | COc1nc2c(C(O)(CCN(C)C)c3cc(F)cc(F)c3)cc(Br)cc2cc1-c1ccccc1 (stereo not drawn) [Compound 9] | 11.8 (≈ 22.4 µM) |
| 50.4 (≈ 100 µM) | 50.4 (≈ 100 µM) | 50.4 (≈ 100 µM) | 40 (≈ 79.4 µM) | 50.4 (≈ 100 µM) | 40 (≈ 79.4 µM) | 50.4 (≈ 100 µM) | 40 (≈ 79.4 µM) | 180 | – | 40 (≈ 79.4 µM) | – | COc1nc2c(C(O)(CCN(C)C)c3ccccc3)cc(-c3cccnc3)cc2cc1Cc1ccccc1 (stereo not drawn) [Compound 66] | 50.4 (≈ 100 µM) |
| 14.5 (≈ 20 µM) | 3.6 (≈ 4.96 µM) | 3.6 (≈ 4.96 µM) | 2.9 (≈ 4 µM) | 7.3 (≈ 10.1 µM) | 16.3 (≈ 22.5 µM) | 3.6 (≈ 4.96 µM) | 2.9 (≈ 4 µM) | – | – | 2.9 (≈ 4 µM) | 14.5 (≈ 20 µM) | CN(C)CCC(O)(c1cccc2ccccc12)c1cc(Br)cc2cc(Cc3ccccc3)c(N3CCN(c4n[nH]c5ccccc45)CC3)nc12 (stereo not drawn) [Compound 26] | 18.2 (≈ 25.1 µM) |

From patent US8017606B2, “Quinoline derivatives as antibacterial agents” (Janssen Pharmaceutica NV, priority 2005, dated 2011)
